Results: ChEMBL document CHEMBL1143152, “Calcitonin gene-related peptide (CGRP) receptor antagonists: investigations of a pyridinone template” (Bioorg Med Chem Lett, 2008)
Each block holds one compound with its values, some of them ahead of it.

Experiments:
[1] = target: T1, Calcitonin gene-related peptide type 1 receptor (Homo sapiens, UniProt O60894+Q16602); test: Displacement of [125I]CGRP from human recombinant CL receptor /RAMP1
[2] = target: T1, Calcitonin gene-related peptide type 1 receptor; test: Antagonist activity at human recombinant CL receptor /RAMP1 assessed as inhibition of cAMP accumulation by cell based assay; format: functional
[3] = target: T1, Calcitonin gene-related peptide type 1 receptor; test: Antagonist activity at human recombinant CL receptor /RAMP1 assessed as inhibition of cAMP accumulation in presence of 50% human serum by cell based assay; format: functional
[4] = Half life in dog at 0.5 mg/kg, iv and 1.0 mg/kg, po; format: ADME, organism-based, Canis lupus familiaris; settings: in vivo
[5] = Clearance in dog at 0.5 mg/kg, iv and 1.0 mg/kg, po; format: ADME, organism-based, Canis lupus familiaris; settings: in vivo
[6] = Cmax in dog at 0.5 mg/kg, iv and 1.0 mg/kg, po; format: ADME, organism-based, Canis lupus familiaris; settings: in vivo
[7] = Bioavailability in dog at 1.0 mg/kg, po; format: ADME, organism-based, Canis lupus familiaris; settings: in vivo
[8] = Half life in rat at 2.0 mg/kg, iv and 10 mg/kg, po; format: ADME, organism-based; settings: in vivo
[9] = Clearance in rat at 2.0 mg/kg, iv and 10 mg/kg, po; format: ADME, organism-based; settings: in vivo
[10] = Cmax in rat at 2.0 mg/kg, iv and 10 mg/kg, po; format: ADME, organism-based; settings: in vivo
[11] = Bioavailability in rat at 10 mg/kg, po; format: ADME, organism-based; settings: in vivo

T1 sequence (Q16602 whole entry, one chain of several): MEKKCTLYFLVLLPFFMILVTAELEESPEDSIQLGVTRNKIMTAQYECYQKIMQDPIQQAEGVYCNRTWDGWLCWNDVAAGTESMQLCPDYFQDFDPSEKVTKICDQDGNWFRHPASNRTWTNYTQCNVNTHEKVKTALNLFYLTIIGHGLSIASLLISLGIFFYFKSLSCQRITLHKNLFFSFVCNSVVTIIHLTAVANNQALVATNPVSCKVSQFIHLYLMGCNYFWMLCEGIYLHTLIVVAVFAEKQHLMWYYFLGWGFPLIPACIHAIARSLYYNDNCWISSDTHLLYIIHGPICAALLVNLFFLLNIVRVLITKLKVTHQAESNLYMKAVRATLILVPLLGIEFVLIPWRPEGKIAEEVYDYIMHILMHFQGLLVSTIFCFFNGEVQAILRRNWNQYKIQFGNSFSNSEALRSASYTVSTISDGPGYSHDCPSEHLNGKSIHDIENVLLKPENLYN

Ki [1]: 1900 nM
Compound: Cn1cc(-c2ncccn2)cc(NC(=O)N2CCC(n3c(=O)[nH]c4ncccc43)CC2)c1=O

Ki [1]: 166 nM
IC50 [2]: 567 nM
Compound: Cn1cc(-c2cccc(F)c2F)cc(NC(=O)N2CCC(n3c(=O)[nH]c4ncccc43)CC2)c1=O

Ki [1]: 42 nM
IC50 [2]: 119 nM
Compound: O=C(Nc1cc(-c2cccc(F)c2)cn(CC(F)(F)F)c1=O)N1CCC(n2c(=O)[nH]c3ncccc32)CC1

Ki [1]: 2050 nM
Compound: Cn1cc(C2C=NC=N2)cc(NC(=O)N2CCC(n3c(=O)[nH]c4ncccc43)CC2)c1=O (stereo not given)

Ki [1]: 170 nM
IC50 [2]: 302 nM
Compound: O=C(Nc1cc(-c2ccccc2)cn(CC2CC2)c1=O)N1CCC(n2c(=O)[nH]c3ncccc32)CC1

Ki [1]: 71 nM
IC50 [2]: 184 nM
IC50 [3]: 872 nM
half-life [4]: 1.2 h
clearance [5]: 2.8 mL/min/kg
Cmax [6]: 0.3 µM
bioavailability [7]: 6%
Compound: Cn1cc(C2C=CN=N2)cc(NC(=O)N2CCC(n3c(=O)[nH]c4ncccc43)CC2)c1=O (stereo not given)

Ki [1]: 213 nM
IC50 [2]: 477 nM
Compound: Cn1cc(-c2ccccc2F)cc(NC(=O)N2CCC(n3c(=O)[nH]c4ncccc43)CC2)c1=O

Ki [1]: 105 nM
IC50 [2]: 345 nM
half-life [8]: 0.9 h
clearance [9]: 9.6 mL/min/kg
Cmax [10]: 5.1 µM
bioavailability [11]: 44%
Compound: O=C(Nc1cc(-c2ccsc2)cn(CC(F)(F)F)c1=O)N1CCC(n2c(=O)[nH]c3ncccc32)CC1

Ki [1]: 42 nM
IC50 [2]: 142 nM
IC50 [3]: 715 nM
Compound: Cn1cc(-c2cccc(O)c2)cc(NC(=O)N2CCC(n3c(=O)[nH]c4ncccc43)CC2)c1=O

Ki [1]: 220 nM
IC50 [2]: 827 nM
Compound: Cn1cc(-c2ccccc2O)cc(NC(=O)N2CCC(n3c(=O)[nH]c4ncccc43)CC2)c1=O

Ki [1]: 498 nM
IC50 [2]: 495 nM
IC50 [3]: 10900 nM
half-life [8]: 3 h
clearance [9]: 1.3 mL/min/kg
Cmax [10]: 20.3 µM
bioavailability [11]: 40%
Compound: Cn1cc(-c2ccccc2)cc(NC(=O)N2CCC(n3c(=O)[nH]c4ncccc43)CC2)c1=O

Ki [1]: 41 nM
IC50 [2]: 164 nM
IC50 [3]: 1000 nM
Compound: COCCn1cc(-c2cccc(F)c2F)cc(NC(=O)N2CCC(n3c(=O)[nH]c4ncccc43)CC2)c1=O

Ki [1]: 17 nM
IC50 [2]: 18 nM
IC50 [3]: 811 nM
half-life [8]: 6.3 h
clearance [9]: 0.8 mL/min/kg
Cmax [10]: 9.4 µM
bioavailability [11]: 34%
half-life [4]: 3.3 h
clearance [5]: 0.2 mL/min/kg
Cmax [6]: 9.4 µM
bioavailability [7]: 65%
Compound: O=C(Nc1cc(-c2cccc(F)c2F)cn(CC(F)(F)F)c1=O)N1CCC(n2c(=O)[nH]c3ncccc32)CC1

Ki [1]: 95 nM
IC50 [2]: 209 nM
half-life [8]: 2.5 h
clearance [9]: 2.3 mL/min/kg
Cmax [10]: 5.3 µM
bioavailability [11]: 31%
half-life [4]: 3.7 h
clearance [5]: 0.2 mL/min/kg
Cmax [6]: 10.3 µM
bioavailability [7]: 58%
Compound: O=C(Nc1cc(-c2ccccc2)cn(CC(F)(F)F)c1=O)N1CCC(n2c(=O)[nH]c3ncccc32)CC1

Ki [1]: 9000 nM
Compound: Cn1cc(-c2ccc(C(=O)O)cc2)cc(NC(=O)N2CCC(n3c(=O)[nH]c4ncccc43)CC2)c1=O

Ki [1]: 635 nM
IC50 [2]: 651 nM
half-life [4]: 5.4 h
clearance [5]: 0.3 mL/min/kg
Cmax [6]: 7.4 µM
bioavailability [7]: 56%
Compound: O=C(Nc1cc(-c2cccnc2)cn(CC(F)(F)F)c1=O)N1CCC(n2c(=O)[nH]c3ncccc32)CC1

Ki [1]: 3400 nM
Compound: O=C(Nc1ccc(-c2ccccc2)n(CC2CC2)c1=O)N1CCC(n2cc(-c3ccccc3)[nH]c2=O)CC1

Ki [1]: 270 nM
IC50 [2]: 1070 nM
Compound: Cn1cc(-c2cccnc2)cc(NC(=O)N2CCC(n3c(=O)[nH]c4ncccc43)CC2)c1=O

Ki [1]: 140 nM
IC50 [2]: 307 nM
IC50 [3]: 394 nM
Compound: COCCn1cc(-c2ccn[nH]2)cc(NC(=O)N2CCC(n3c(=O)[nH]c4ncccc43)CC2)c1=O

Ki [1]: 1750 nM
Compound: Cn1cc(-c2ccc(S(C)(=O)=O)cc2)cc(NC(=O)N2CCC(n3c(=O)[nH]c4ncccc43)CC2)c1=O

Ki [1]: 54 nM
IC50 [2]: 186 nM
Compound: O=C(Nc1cc(-c2ccccc2F)cn(CC(F)(F)F)c1=O)N1CCC(n2c(=O)[nH]c3ncccc32)CC1

Ki [1]: 96 nM
IC50 [2]: 282 nM
IC50 [3]: 971 nM
Compound: O=C(Nc1cc(-c2ccc(O)cc2)cn(CC(F)(F)F)c1=O)N1CCC(n2c(=O)[nH]c3ncccc32)CC1

Ki [1]: 75 nM
IC50 [2]: 330 nM
half-life [8]: 1 h
clearance [9]: 8.9 mL/min/kg
Cmax [10]: 7.4 µM
bioavailability [11]: 47%
Compound: Cn1cc(-c2ccsc2)cc(NC(=O)N2CCC(n3c(=O)[nH]c4ncccc43)CC2)c1=O

Ki [1]: 43 nM
IC50 [2]: 88 nM
half-life [8]: 1.1 h
clearance [9]: 16.1 mL/min/kg
Cmax [10]: 0.1 µM
bioavailability [11]: 2%
half-life [4]: 2.9 h
clearance [5]: 0.6 mL/min/kg
Cmax [6]: 0.6 µM
bioavailability [7]: 3%
Compound: Cn1cc(-c2ccc(O)cc2)cc(NC(=O)N2CCC(n3c(=O)[nH]c4ncccc43)CC2)c1=O

Ki [1]: 80 nM
IC50 [2]: 360 nM
Compound: O=C(Nc1cc(-c2ccccc2)cn(CC2CC2)c1=O)N1CCC(n2cc(-c3ccccc3)[nH]c2=O)CC1

Ki [1]: 695 nM
IC50 [2]: 1190 nM
Compound: COCCn1cc(-c2cccnc2)cc(NC(=O)N2CCC(n3c(=O)[nH]c4ncccc43)CC2)c1=O

Ki [1]: 228 nM
IC50 [2]: 665 nM
half-life [8]: 0.5 h
clearance [9]: 25.3 mL/min/kg
Cmax [10]: 1.3 µM
bioavailability [11]: 37%
Compound: COCCn1cc(-c2ccccc2)cc(NC(=O)N2CCC(n3c(=O)[nH]c4ncccc43)CC2)c1=O

Ki [1]: 155 nM
IC50 [2]: 337 nM
Compound: Cn1cc(-c2cccc(F)c2)cc(NC(=O)N2CCC(n3c(=O)[nH]c4ncccc43)CC2)c1=O

Ki [1]: 495 nM
IC50 [2]: 1530 nM
Compound: COc1ccc(-c2cc(NC(=O)N3CCC(n4c(=O)[nH]c5ncccc54)CC3)c(=O)n(C)c2)cc1

Ki [1]: 390 nM
IC50 [2]: 540 nM
half-life [8]: 2.8 h
clearance [9]: 23.5 mL/min/kg
Cmax [10]: 0.08 µM
bioavailability [11]: 1%
Compound: COCCn1cc(-c2ccsc2)cc(NC(=O)N2CCC(n3c(=O)[nH]c4ncccc43)CC2)c1=O

Ki [1]: 205 nM
IC50 [2]: 550 nM
IC50 [3]: 1420 nM
Compound: O=C(Nc1cc(-c2ccn[nH]2)cn(CC(F)(F)F)c1=O)N1CCC(n2c(=O)[nH]c3ncccc32)CC1

Ki [1]: 74 nM
IC50 [2]: 170 nM
IC50 [3]: 280 nM
Compound: COCCn1cc(-c2ccc(O)cc2)cc(NC(=O)N2CCC(n3c(=O)[nH]c4ncccc43)CC2)c1=O
